From patent publication US10858356B2, “Pyrazolopyridine derivative having GLP-1 receptor agonist effect” (Chugai Seiyaku Kabushiki Kaisha, priority 2016, dated 2020)

biological target: human GLP1R (Homo sapiens (Human), UniProt P43220); test: In vitro cAMP signal activation in human GLP1R stably-expressing cell line (hGLP1R-HEK293); format: cell-based; conditions: cAMP concentration in hGLP1R-HEK293; 100% = 1 nM human GLP-1 (7-37)
Sequence (P43220 24-463): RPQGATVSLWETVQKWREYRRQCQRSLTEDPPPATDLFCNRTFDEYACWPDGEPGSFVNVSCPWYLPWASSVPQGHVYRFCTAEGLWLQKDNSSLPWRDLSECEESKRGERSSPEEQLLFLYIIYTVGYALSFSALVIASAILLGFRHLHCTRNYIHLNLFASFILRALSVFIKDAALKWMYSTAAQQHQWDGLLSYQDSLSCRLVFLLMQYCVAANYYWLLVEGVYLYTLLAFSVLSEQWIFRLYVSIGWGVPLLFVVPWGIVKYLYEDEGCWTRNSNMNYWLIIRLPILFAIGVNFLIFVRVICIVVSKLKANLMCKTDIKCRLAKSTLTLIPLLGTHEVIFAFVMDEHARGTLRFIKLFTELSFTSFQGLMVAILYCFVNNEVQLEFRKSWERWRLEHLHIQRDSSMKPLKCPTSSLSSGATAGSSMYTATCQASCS

| EC50 [nM] | Compound |
| --- | --- |
| 1.6 | COCCn1ncc2c(F)c(-n3ccn(-c4c5c(nn4-c4cc(C)c(Cl)c(C)c4)CCN(C(=O)c4cc6cc(C7CCOCC7)ccc6n4[C@@]4(c6noc(=O)[nH]6)C[C@@H]4C)[C@H]5C)c3=O)ccc21 [Example 45, 3-[(1S,2S)-1-[2-[(4S)-2-(4-chloro-3,5-dimethylphenyl)-3-[3-[4-fluoro-1-(2-methoxyethyl)indazol-5-yl]-2-oxoimidazol-1-yl]-4-methyl-6,7-dihydro-4H-pyrazolo[4,3-c]pyridine-5-carbonyl]-5-(oxan-4-yl)indol-1-yl]-2-methylcyclopropyl]-4H-1,2,4-oxadiazol-5-one] |
| 3.3 | Cc1cc(-n2nc3c(c2-n2ccn(-c4ccc5c(cnn5CC(F)(F)F)c4F)c2=O)[C@H](C)N(C(=O)c2cc4cc(C5CCOCC5)ccc4n2[C@@]2(c4noc(=O)[nH]4)C[C@@H]2C)CC3)ccc1F [Example 46, 3-[(1S,2S)-1-[2-[(4S)-2-(4-fluoro-3-methylphenyl)-3-[3-[4-fluoro-1-(2,2,2-trifluoroethyl)indazol-5-yl]-2-oxoimidazol-1-yl]-4-methyl-6,7-dihydro-4H-pyrazolo[4,3-c]pyridine-5-carbonyl]-5-(oxan-4-yl)indol-1-yl]-2-methylcyclopropyl]-4H-1,2,4-oxadiazol-5-one] |
| 2 | COCCn1ncc2c(F)c(-n3ccn(-c4c5c(nn4-c4ccc(F)c(C)c4)CCN(C(=O)c4cc6cc(C7CCOCC7)ccc6n4[C@@]4(c6noc(=O)[nH]6)C[C@@H]4C)[C@H]5C)c3=O)ccc21 [Example 47, 3-[(1S,2S)-1-[2-[(4S)-3-[3-[4-fluoro-1-(2-methoxyethyl)indazol-5-yl]-2-oxoimidazol-1-yl]-2-(4-fluoro-3-methylphenyl)-4-methyl-6,7-dihydro-4H-pyrazolo[4,3-c]pyridine-5-carbonyl]-5-(oxan-4-yl)indol-1-yl]-2-methylcyclopropyl]-4H-1,2,4-oxadiazol-5-one] |
| 3 | COCCn1ncc2c(F)c(-n3ccn(-c4c5c(nn4-c4ccc(F)c(C)c4)CCN(C(=O)c4cc6cc([C@H]7CCOC(C)(C)C7)ccc6n4[C@@]4(c6noc(=O)[nH]6)C[C@@H]4C)[C@H]5C)c3=O)ccc21 [Example 48, 3-[(1S,2S)-1-[5-[(4S)-2,2-dimethyloxan-4-yl]-2-[(4S)-3-[3-[4-fluoro-1-(2-methoxyethyl)indazol-5-yl]-2-oxoimidazol-1-yl]-2-(4-fluoro-3-methylphenyl)-4-methyl-6,7-dihydro-4H-pyrazolo[4,3-c]pyridine-5-carbonyl]indol-1-yl]-2-methylcyclopropyl]-4H-1,2,4-oxadiazol-5-one] |
| 3.8 | Cc1cc(-n2nc3c(c2-n2ccn(-c4ccc5c(cnn5C)c4Cl)c2=O)[C@H](C)N(C(=O)c2cc4cc([C@H]5CCOC(C)(C)C5)ccc4n2[C@@]2(c4noc(=O)[nH]4)C[C@@H]2C)CC3)ccc1F [Example 49, 3-[(1S,2S)-1-[2-[(4S)-3-[3-(4-chloro-1-methylindazol-5-yl)-2-oxoimidazol-1-yl]-2-(4-fluoro-3-methylphenyl)-4-methyl-6,7-dihydro-4H-pyrazolo[4,3-c]pyridine-5-carbonyl]-5-[(4S)-2,2-dimethyloxan-4-yl]indol-1-yl]-2-methylcyclopropyl]-4H-1,2,4-oxadiazol-5-one] |
| 2.9 | Cc1cc(-n2nc3c(c2-n2ccn(-c4ccc5c(cnn5C)c4)c2=O)[C@H](C)N(C(=O)c2cc4cc([C@H]5CCOC(C)(C)C5)ccc4n2[C@@]2(c4noc(=O)[nH]4)C[C@@H]2C)CC3)ccc1F [Example 50, 3-[(1S,2S)-1-[5-[(4S)-2,2-dimethyloxan-4-yl]-2-[(4S)-2-(4-fluoro-3-methylphenyl)-4-methyl-3-[3-(1-methylindazol-5-yl)-2-oxoimidazol-1-yl]-6,7-dihydro-4H-pyrazolo[4,3-c]pyridine-5-carbonyl]indol-1-yl]-2-methylcyclopropyl]-4H-1,2,4-oxadiazol-5-one] |
| 6.7 | Cc1cc(-n2nc3c(c2-n2ccn(-c4ccc5c(cnn5C)c4)c2=O)CN(C(=O)c2cc4cc(N5CCOC6(CC6)C5)ccc4n2[C@@]2(c4noc(=O)[nH]4)C[C@@H]2C)CC3)cc(C)c1F [compound 52] |
| 2.9 | CC[C@H]1CN(c2ccc3c(c2)cc(C(=O)N2CCc4nn(-c5cc(C)c(F)c(C)c5)c(-n5ccn(-c6ccc7c(cnn7C)c6)c5=O)c4C2)n3[C@@]2(c3noc(=O)[nH]3)C[C@@H]2C)CCO1 [compound 53] |
| 3.9 | Cc1cc(-n2nc3c(c2-n2ccn(-c4ccc5c(cnn5C)c4)c2=O)CN(C(=O)c2cc4cc(C5CCOCC5)ccc4n2[C@@]2(c4noc(=O)[nH]4)C[C@@H]2C)CC3)cc(C)c1F [compound 54, 3-[(1S,2S)-1-[2-[2-(4-fluoro-3,5-dimethylphenyl)-3-[3-(1-methylindazol-5-yl)-2-oxoimidazol-1-yl]-6,7-dihydro-4H-pyrazolo[4,3-c]pyridine-5-carbonyl]-5-(oxan-4-yl)indol-1-yl]-2-methylcyclopropyl]-4H-1,2,4-oxadiazol-5-one] |
| 3.7 | Cc1cc(-n2nc3c(c2-n2ccn(-c4ccc5c(cnn5C)c4)c2=O)CN(C(=O)c2cc4cc(C5CCOCC5)ccc4n2[C@@]2(c4noc(=O)[nH]4)C[C@@H]2C)CC3)cc(C)c1Cl [compound 55, 3-[(1S,2S)-1-[2-[2-(4-chloro-3,5-dimethylphenyl)-3-[3-(1-methylindazol-5-yl)-2-oxoimidazol-1-yl]-6,7-dihydro-4H-pyrazolo[4,3-c]pyridine-5-carbonyl]-5-(oxan-4-yl)indol-1-yl]-2-methylcyclopropyl]-4H-1,2,4-oxadiazol-5-one] |
| 3.4 | COCCn1ncc2cc(-n3ccn(-c4c5c(nn4-c4cc(C)c(F)c(C)c4)CCN(C(=O)c4cc6cc(C7CCOCC7)cnc6n4[C@@]4(c6noc(=O)[nH]6)C[C@@H]4C)C5)c3=O)ccc21 [compound 56, 3-[(1S,2S)-1-[2-[2-(4-fluoro-3,5-dimethylphenyl)-3-[3-[1-(2-methoxyethyl)indazol-5-yl]-2-oxoimidazol-1-yl]-6,7-dihydro-4H-pyrazolo[4,3-c]pyridine-5-carbonyl]-5-(oxan-4-yl)pyrrolo[2,3-b]pyridin-1-yl]-2-methylcyclopropyl]-4H-1,2,4-oxadiazol-5-one] |
| 8.1 | COCCN(C(C)=O)C12C3C4C1C1C2C3C41n1ccn(-c2c3c(nn2-c2cc(C)c(F)c(C)c2)CCN(C(=O)c2cc4cc(C5CCOCC5)ccc4n2[C@@]2(c4noc(=O)[nH]4)C[C@@H]2C)[C@H]3C)c1=O (stereo partly drawn) [compound 57, N-[4-[3-[(4S)-2-(4-fluoro-3,5-dimethylphenyl)-4-methyl-5-[1-[(1S,2S)-2-methyl-1-(5-oxo-4H-1,2,4-oxadiazol-3-yl)cyclopropyl]-5-(oxan-4-yl)indole-2-carbonyl]-6,7-dihydro-4H-pyrazolo[4,3-c]pyridin-3-yl]-2-oxoimidazol-1-yl]cuban-1-yl]-N-(2-methoxyethyl)acetamide] |
| 7.6 | COCCn1ncc2cc(-n3ccn(-c4c5c(nn4-c4ccc(F)c(C)c4)CCN(C(=O)c4cc6cc(N7CCOC(C)(C)C7)ccc6n4[C@@]4(c6noc(=O)[nH]6)C[C@@H]4C)C5)c3=O)ccc21 [compound 58, 3-[(1S,2S)-1-[5-(2,2-dimethylmorpholin-4-yl)-2-[2-(4-fluoro-3-methylphenyl)-3-[3-[1-(2-methoxyethyl)indazol-5-yl]-2-oxoimidazol-1-yl]-6,7-dihydro-4H-pyrazolo[4,3-c]pyridine-5-carbonyl]indol-1-yl]-2-methylcyclopropyl]-4H-1,2,4-oxadiazol-5-one] |
| 1.5 | Cc1cc(-n2nc3c(c2-n2ccn(-c4ccc5c(cnn5C)c4)c2=O)CN(C(=O)c2cc4cc([C@H]5CCOC(C)(C)C5)ccc4n2[C@@]2(c4noc(=O)[nH]4)C[C@@H]2C)CC3)cc(C)c1F [compound 59, 3-[(1S,2S)-1-[5-[(4S)-2,2-dimethyloxan-4-yl]-2-[2-(4-fluoro-3,5-dimethylphenyl)-3-[3-(1-methylindazol-5-yl)-2-oxoimidazol-1-yl]-6,7-dihydro-4H-pyrazolo[4,3-c]pyridine-5-carbonyl]indol-1-yl]-2-methylcyclopropyl]-4H-1,2,4-oxadiazol-5-one] |
| 4.9 | Cc1cc(C)cc(-n2nc3c(c2-n2ccn(-c4ccc5c(cnn5C)c4)c2=O)CN(C(=O)c2cc4cc(C5CCOC(C)(C)C5)ccc4n2[C@@]2(c4noc(=O)[nH]4)C[C@@H]2C)CC3)c1 (stereo partly drawn) [compound 60] |
| 1.6 | Cc1cc(-n2nc3c(c2-n2ccn(-c4ccc5c(cnn5C)c4)c2=O)[C@H](C)N(C(=O)c2cc4cc([C@H]5CCO[C@@H](C)C5)ccc4n2[C@@]2(c4noc(=O)[nH]4)C[C@@H]2C)CC3)cc(C)c1F [compound 61, 3-[(1S,2S)-1-[2-[(4S)-2-(4-fluoro-3,5-dimethylphenyl)-4-methyl-3-[3-(1-methylindazol-5-yl)-2-oxoimidazol-1-yl]-6,7-dihydro-4H-pyrazolo[4,3-c]pyridine-5-carbonyl]-5-[(2S,4S)-2-methyloxan-4 yl]indol-1-yl]-2-methylcyclopropyl]-4H-1,2,4-oxadiazol-5-one] |
| 1.1 | COCCn1ncc2cc(-n3ccn(-c4c5c(nn4-c4cc(C)c(F)c(C)c4)CCN(C(=O)c4cc6cc([C@H]7CCO[C@@H](C)C7)ccc6n4[C@@]4(c6noc(=O)[nH]6)C[C@@H]4C)[C@H]5C)c3=O)ccc21 [compound 62, 3-[(1S,2S)-1-[2-[(4S)-2-(4-fluoro-3,5-dimethylphenyl)-3-[3-[1-(2-methoxyethyl)indazol-5-yl]-2-oxoimidazol-1-yl]-4-methyl-6,7-dihydro-4H-pyrazolo[4,3-c]pyridine-5-carbonyl]-5-[(2S,4S)-2-methyloxan-4-yl]indol-1-yl]-2-methylcyclopropyl]-4H-1,2,4-oxadiazol-5-one] |
| 1.1 | COCCn1ncc2cc(-n3ccn(-c4c5c(nn4-c4cc(C)c(F)c(C)c4)CCN(C(=O)c4cc6cc(C7CCOCC7)cc(F)c6n4[C@@]4(c6noc(=O)[nH]6)C[C@@H]4C)[C@H]5C)c3=O)ccc21 [compound 63, 3-[(1S,2S)-1-[7-fluoro-2-[(4S)-2-(4-fluoro-3,5-dimethylphenyl)-3-[3-[1-(2-methoxyethyl)indazol-5-yl]-2-oxoimidazol-1-yl]-4-methyl-6,7-dihydro-4H-pyrazolo[4,3-c]pyridine-5-carbonyl]-5-(oxan-4-yl)indol-1-yl]-2-methylcyclopropyl]-4H-1,2,4-oxadiazol-5-one] |
